What all share (test): relative viability (nuclei count vs DMSO), 5 days (fraction); higher = more cells survive
Compound in experiment [1]: COc1cc(-c2nn([C@H]3CC[C@H](N4CCN(C(C)=O)CC4)CC3)c3ncnc(N)c23)ccc1NC(=O)c1cc2ccccc2n1C + Cc1nc(NC(=O)N2CCC[C@H]2C(N)=O)sc1-c1ccnc(C(C)(C)C(F)(F)F)c1 [Alpelisib] (partner 2 µM)
The procedure, abridged:
(§1)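 After 5 days of treatment, lung cancer cells in 1536-well plates were fixed and stained in a single step (final 0.05% Triton X-100, 1% formaldehyde, 1 ug/ml Hoechst) and their nuclei counted on 4× images. Treatment had been applied by pin tool the day after seeding as one drug alone or as a fixed anchor-drug dose with five library-drug doses (not always all listed) in √10 steps. Relative viability is the nuclei count of treated wells divided by that of vehicle wells, and values are medians of duplicate plates.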

Compound in experiment [2]: CO[C@@H]1[C@H](N(C)C(=O)c2ccccc2)C[C@H]2O[C@]1(C)n1c3ccccc3c3c4c(c5c6ccccc6n2c5c31)C(=O)NC4 [Midostaurin] + COc1cccc2cc(-c3nc([C@H]4CC[C@H](C(=O)O)CC4)n4ncnc(N)c34)[nH]c12 [OSI-027] (partner 0.5 µM)
In short, it runs like this:
as §1

Compound in experiment [3]: CO[C@@H]1[C@H](N(C)C(=O)c2ccccc2)C[C@H]2O[C@]1(C)n1c3ccccc3c3c4c(c5c6ccccc6n2c5c31)C(=O)NC4 [Midostaurin] + Cc1cc(Nc2cc(N3CCN(C)CC3)nc(Sc3ccc(NC(=O)C4CC4)cc3)n2)n[nH]1 [Tozasertib] (partner 0.1 µM)
In short, it runs like this: as §1

Compound in experiment [4]: CO[C@@H]1[C@H](N(C)C(=O)c2ccccc2)C[C@H]2O[C@]1(C)n1c3ccccc3c3c4c(c5c6ccccc6n2c5c31)C(=O)NC4 [Midostaurin] + NC(=O)Nc1cc(-c2cccc(F)c2)sc1C(=O)N[C@H]1CCCNC1 [AZD7762] (partner 0.2 µM)
The procedure, abridged: as §1

Compound in experiment [5]: COc1cc(-c2nn([C@H]3CC[C@H](N4CCN(C(C)=O)CC4)CC3)c3ncnc(N)c23)ccc1NC(=O)c1cc2ccccc2n1C + CCNC(=O)c1noc(-c2cc(C(C)C)c(O)cc2O)c1-c1ccc(CN2CCOCC2)cc1 [Luminespib] (partner 0.01 µM)
The procedure, abridged:
as §1

The source of these data is the supplement of paper PMC10307832.

Take LCLC-97TM1: the relative viability in experiment [1] (first compound 0.0128 µM) turned out to be 0.252; in experiment [1] (first compound 0.04048 µM), 0.203; in experiment [1] (first compound 0.128 µM), 0.226; in experiment [1] (first compound 1.28 µM), 0.319; in experiment [2] (first compound 0.01 µM), 0.439; in experiment [2] (first compound 0.03162 µM) it was 0.404. In addition, the relative viability was 0.434 in experiment [2] (first compound 0.1 µM); 0.557 in experiment [2] (first compound 0.3162 µM); 0.21 in experiment [3] (first compound 0.01 µM); 0.218 in experiment [3] (first compound 0.03162 µM); 0.247 in experiment [3] (first compound 0.1 µM); 0.257 in experiment [3] (first compound 0.3162 µM). Besides, the relative viability in experiment [4] (first compound 0.01 µM) stood at 0.169; in experiment [4] (first compound 0.03162 µM), 0.287; in experiment [4] (first compound 0.1 µM) it was 0.223; in experiment [4] (first compound 0.3162 µM), 0.275; in experiment [5] (first compound 0.0128 µM), 0.838; in experiment [5] (first compound 0.04048 µM), 0.545. Further, the relative viability in experiment [5] (first compound 0.128 µM) amounted to 0.757; in experiment [5] (first compound 1.28 µM), 0.404.

Turning to EPLC-272H, the relative viability in experiment [1] (first compound 0.0128 µM) was 0.976; in experiment [1] (first compound 0.04048 µM) it was 1.09; in experiment [1] (first compound 0.128 µM) it was 0.923; in experiment [1] (first compound 1.28 µM), 0.765; in experiment [2] (first compound 0.01 µM) it was 0.301; in experiment [2] (first compound 0.1 µM), 0.289. The relative viability in experiment [2] (first compound 0.3162 µM) worked out at 0.305; in experiment [3] (first compound 0.01 µM) it was 0.261; in experiment [3] (first compound 0.1 µM), 0.186; in experiment [3] (first compound 0.3162 µM) it was 0.311; in experiment [4] (first compound 0.01 µM), 0.208; in experiment [4] (first compound 0.03162 µM), 0.287. The relative viability in experiment [4] (first compound 0.1 µM) came out at 0.259; in experiment [4] (first compound 0.3162 µM) it was 0.165; in experiment [5] (first compound 0.0128 µM), 0.331; in experiment [5] (first compound 0.128 µM), 0.257; in experiment [5] (first compound 1.28 µM) it was 0.209.

In the case of NCI-H1915, the relative viability in experiment [1] (first compound 0.0128 µM) was found to be 1.13; in experiment [1] (first compound 0.04048 µM), 1.07; in experiment [1] (first compound 0.128 µM) it was 1.02; in experiment [1] (first compound 1.28 µM) it was 0.857; in experiment [2] (first compound 0.01 µM), 0.623; in experiment [2] (first compound 0.03162 µM), 0.555. Also, the relative viability in experiment [2] (first compound 0.1 µM) was found to be 0.568; in experiment [2] (first compound 0.3162 µM) it was 0.597; in experiment [3] (first compound 0.01 µM) it was 0.46; in experiment [3] (first compound 0.03162 µM) it was 0.435; in experiment [3] (first compound 0.1 µM) it was 0.404; in experiment [3] (first compound 0.3162 µM), 0.412. Moreover, the relative viability in experiment [4] (first compound 0.01 µM) was 0.654; in experiment [4] (first compound 0.03162 µM), 0.679; in experiment [4] (first compound 0.1 µM), 0.671; in experiment [4] (first compound 0.3162 µM), 0.709; in experiment [5] (first compound 0.0128 µM) it was 0.877; in experiment [5] (first compound 0.04048 µM), 0.691. Moreover, the relative viability in experiment [5] (first compound 0.128 µM) worked out at 0.625; in experiment [5] (first compound 1.28 µM) it was 0.678.

NCI-H2405: the relative viability in experiment [1] (first compound 0.0128 µM) was 0.83; in experiment [1] (first compound 0.04048 µM), 0.419; in experiment [1] (first compound 0.128 µM), 0.722; in experiment [1] (first compound 1.28 µM), 0.272; in experiment [2] (first compound 0.01 µM), 0.65; in experiment [2] (first compound 0.03162 µM), 0.6. Further, the relative viability in experiment [2] (first compound 0.1 µM) turned out to be 0.525; in experiment [2] (first compound 0.3162 µM), 0.633; in experiment [3] (first compound 0.01 µM), 0.752; in experiment [3] (first compound 0.03162 µM) it was 0.677; in experiment [3] (first compound 0.1 µM), 0.742; in experiment [3] (first compound 0.3162 µM), 0.585. Further, the relative viability in experiment [4] (first compound 0.01 µM) turned out to be 0.682; in experiment [4] (first compound 0.03162 µM), 0.804; in experiment [4] (first compound 0.1 µM), 0.847; in experiment [4] (first compound 0.3162 µM), 0.75; in experiment [5] (first compound 0.0128 µM), 0.862; in experiment [5] (first compound 0.04048 µM), 0.529. Also, the relative viability in experiment [5] (first compound 0.128 µM) amounted to 0.56; in experiment [5] (first compound 1.28 µM), 0.251.

With NCI-H322M, the relative viability in experiment [1] (first compound 0.0128 µM) worked out at 0.801; in experiment [1] (first compound 0.04048 µM), 0.844; in experiment [1] (first compound 0.128 µM), 0.681; in experiment [1] (first compound 1.28 µM) it was 0.741; in experiment [2] (first compound 0.01 µM), 0.633; in experiment [2] (first compound 0.03162 µM), 0.489. Also, the relative viability in experiment [2] (first compound 0.1 µM) was found to be 0.595; in experiment [2] (first compound 0.3162 µM) it was 0.569; in experiment [3] (first compound 0.01 µM) it was 0.474; in experiment [3] (first compound 0.03162 µM) it was 0.477; in experiment [3] (first compound 0.1 µM) it was 0.481; in experiment [3] (first compound 0.3162 µM) it was 0.544. Also, the relative viability in experiment [4] (first compound 0.01 µM) was determined as 0.504; in experiment [4] (first compound 0.03162 µM), 0.703; in experiment [4] (first compound 0.1 µM) it was 0.533; in experiment [4] (first compound 0.3162 µM), 0.582; in experiment [5] (first compound 0.0128 µM), 0.887; in experiment [5] (first compound 0.04048 µM) it was 0.935. The values for the relative viability in experiment [5] (first compound 0.128 µM) and in experiment [5] (first compound 1.28 µM) were 0.756 and 0.483, respectively.
